Reference: paper PMC9264115, “Pd-catalyzed C–C and C–N cross-coupling reactions in 2-aminothieno[3,2-d]pyrimidin-4(3H)-one series for antiplasmodial pharmacomodulation” (RSC Advances, 2022)

Columns and labels:
[1] = Cytotoxic evaluation, MTT assay; type: cell-based; conditions: HepG2 cells, human HepG2 cell line, three independent experiments
Method: The HepG2 cell line was maintained at 37 °C, 5% CO2, at 90% humidity in […] supplemented with 10% fetal bovine serum, 1% L-glutamine (200 mM), and penicillin (100 U per mL)/streptomycin (100 μg mL^−1) (complete RPMI medium). The cytotoxicity of the tested molecules on the HepG2 (hepatocarcinoma cell line purchased from ATCC, ref HB-8065) cell line was assessed according to the method of Mosmann[20] with slight modifications. Briefly, 5 × 10^3 cells in 100 μL of complete medium were inoculated into each well of 96-well plates and incubated at 37 °C in humidified 5% CO2. After 24 h incubation, 100 μL of medium with various product concentrations dissolved in DMSO (final concentration less than 0.5% v/v) were added and the plates were incubated for 72 h at 37 °C. Triplicate assays were performed for each sample. Each plate was then microscopically examined for possible precipitate formation before the medium was aspirated from the wells. Next, 100 μL of MTT (3-(4,5-dimethyl-2-thiazolyl)-2,5-diphenyl-2H-tetrazolium bromide) solution (0.5 mg mL^−1 in medium without FBS) was added to each well. Cells were incubated for 2 h at 37 °C. After this time, the MTT solution was removed and DMSO (100 μL) was added to dissolve the resulting blue formazan crystals. Plates were shaken vigorously (700 rpm) for 10 min. The absorbance was measured at 570 nm with 630 nm as a reference wavelength using a BIO-TEK ELx808 Absorbance Microplate Reader (LabX, Midland, ON, Canada). DMSO was used as a blank and doxorubicin (purchased from Sigma Aldrich) as a positive control. Cell viability was calculated as a percentage of control (cells incubated without the compound). […] CC50 values to represent the mean value calculated from three independent experiments.

[2] = system: K1 culture-adapted P. falciparum strain; experiment: Antiplasmodial evaluation, SYBR Green I fluorescence-based drug susceptibility test; type: cell-based; conditions: for EC50: Plasmodium falciparum, multi-resistant K1 strain of P. falciparum, 72 h incubation, three independent experiments, read-out: EC50 PfK1; for SI (selectivity index): from CC50 HepG2 and EC50 PfK1
Method: […]. Parasitemia was maintained daily between 1 and 3%. The P. falciparum drug susceptibility test was carried out by comparing quantities of DNA in treated and control cultures of parasite in human erythrocytes according to a SYBR Green I fluorescence-based method[19] using a 96-well fluorescence plate reader. Compounds previously dissolved in DMSO (final concentration less than 0.5% v/v) were incubated in a total assay volume of 200 μL (RPMI, 2% hematocrit and 0.4% parasitemia) for 72 h in a humidified atmosphere (10% O2 and 5% CO2) at 37 °C in 96-well flat bottom plates. Duplicate assays were performed for each sample. After incubation, plates were frozen at […] for 24 h. Then, the frozen plates were thawed for 1 h at 37 °C. Fifteen μL of each sample were transferred to 96-well flat bottom non-sterile black plates (Greiner Bio-one, Kremsmünster, Austria), already containing 15 μL of the SYBR Green I lysis buffer (2X SYBR Green I, 20 mM Tris base pH 7.5, 20 mM EDTA, 0.008% w/v saponin, 0.08% w/v Triton X-100). […] Plates were incubated for 15 min at 37 °C and then read on a TECAN Infinite F-200 spectrophotometer with excitation and emission wavelengths at 485 and 535 nm, respectively.

SMILES	EC50 [2] [µM]	melting point [°C]	CC50 at 72 h [1] [µM]	SI (selectivity index) [2]
CC(C)(C)Nc1nc2cc(Br)sc2c(=O)[nH]1 [Compound 1, 6-Bromo-2-(tert-butylamino)thieno[3,2-d]pyrimidin-4(3H)-one]	43.2 ± 2.6	–	38.2 ± 3.5	0.9
Cc1ccc(Nc2cc3nc(NC(C)(C)C)[nH]c(=O)c3s2)cc1 [Compound 1a, 2-tert-Butylamino-6-[(4-methylphenyl)amino]thieno[3,2-d]pyrimidin-4(3H)-one]	10.3 ± 0.2	–	21.7 ± 2.1	–
Cc1cccc(Nc2cc3nc(NC(C)(C)C)[nH]c(=O)c3s2)c1 [Compound 1b, 2-tert-Butylamino-6-[(3-methylphenyl)amino]thieno[3,2-d]pyrimidin-4(3H)-one]	1.1 ± 0.3	–	5.3 ± 0.4	–
Cc1ccccc1Nc1cc2nc(NC(C)(C)C)[nH]c(=O)c2s1 [Compound 1c, 2-tert-Butylamino-6-[(2-methylphenyl)amino]thieno[3,2-d]pyrimidin-4(3H)-one]	4.3 ± 0.2	–	14.1 ± 0.3	–
COc1ccc(Nc2cc3nc(NC(C)(C)C)[nH]c(=O)c3s2)cc1 [Compound 1d, 2-tert-Butylamino-6-[(4-methoxyphenyl)amino]thieno[3,2-d]pyrimidin-4(3H)-one]	7.2 ± 2	205 to 207	24 ± 3.1	3.3
CC(C)(C)Nc1nc2cc(Nc3ccc(F)cc3)sc2c(=O)[nH]1 [Compound 1e, 2-tert-Butylamino-6-[(4-fluorophenyl)amino]thieno[3,2-d]pyrimidin-4(3H)-one]	7.1 ± 1.4	195 to 197	21.3 ± 1.6	3.0
CC(C)(C)Nc1nc2cc(N3CCOCC3)sc2c(=O)[nH]1 [Compound 1f, 2-tert-Butylamino-6-(morpholin-4-yl)thieno[3,2-d]pyrimidin-4(3H)-one]	4.5 ± 1.1	264 to 266	> 50	>11.1
CC(C)Nc1nc2cc(Br)sc2c(=O)[nH]1 [Compound 3, 6-Bromo-2-(propan-2-ylamino)thieno[3,2-d]pyrimidin-4(3H)-one]	> 50	240 to 242	89.1 ± 9.7	<1.8

More lines, main results first:

EC50 [2] [µM]	melting point [°C]	SMILES	CC50 at 72 h [1] [µM]	SI (selectivity index) [2]
2.35 ± 0.38	235 to 237	Cc1ccc(C#Cc2cc3nc(NC(C)(C)C)[nH]c(=O)c3s2)cc1 [Compound 2b, 2-tert-Butylamino-6-[(4-methylphenyl)ethynyl]thieno[3,2-d]pyrimidin-4(3H)-one]	> 12.5	>5.3
4.6 ± 1	277 to 279	Cc1ccc(C#Cc2cc3nc(NC(C)C)[nH]c(=O)c3s2)cc1 [Compound 2c, 6-[(4-methylphenyl)ethynyl]-2-(propan-2-ylamino)thieno[3,2-d]pyrimidin-4(3H)-one]	3.1 ± 0.6	0.7
> 10	–	CC(C)(C)Nc1nc2cc(C#CCCO)sc2c(=O)[nH]1 [Compound 2d, 2-tert-Butylamino-6-(4-hydroxybut-1-yn-1-yl)thieno[3,2-d]pyrimidin-4(3H)-one]	> 50	–
1.9 ± 0.6	158 to 160	CC(C)(C)Nc1nc2cc(C#CC3CC3)sc2c(=O)[nH]1 [Compound 2e, 2-tert-Butylamino-6-(cyclopropylethynyl)thieno[3,2-d]pyrimidin-4(3H)-one]	20.8 ± 1.4	10.9
> 12.5	–	C#Cc1cc2nc(NC(C)(C)C)[nH]c(=O)c2s1 [Compound 2f, 2-tert-Butylamino-6-ethynylthieno[3,2-d]pyrimidin-4(3H)-one]	4.7 ± 1	–
> 5	–	CN1CCN(CC#Cc2cc3nc(NC(C)(C)C)[nH]c(=O)c3s2)CC1 [Compound 2g, 2-tert-Butylamino-6-[3-(4-methylpiperazin-1-yl)prop-1-yn-1-yl]thieno[3,2-d]pyrimidin-4(3H)-one]	41.6 ± 5.2	–
2.8 ± 1	276 to 278	CC(C)Nc1nc2cc(C#Cc3ccccc3)sc2c(=O)[nH]1 [Compound 2h, 6-(phenylethynyl)-2-(propan-2-ylamino)thieno[3,2-d]pyrimidin-4(3H)-one]	> 12.5	>4.5
2.5 ± 0.9	> 300	COC(=O)c1ccc(-c2cc3nc(NC(C)(C)C)[nH]c(=O)c3s2)cc1 [Compound 4a, Methyl-4-(2-tert-butylamino-4-oxo-3,4-dihydrothieno[3,2-d]pyrimidin-6-yl)benzoate]	> 12.5	>5.0
–	> 300	CC(C)(C)Nc1nc2cc(-c3ccc([N+](=O)[O-])cc3)sc2c(=O)[nH]1 [Compound 4b, 2-tert-Butylamino-6-(4-nitrophenyl)thieno[3,2-d]pyrimidin-4(3H)-one]	–	–
7.5 ± 1	–	CC(C)(C)Nc1nc2cc(-c3ccc(O)cc3)sc2c(=O)[nH]1 [Compound 4d, 2-(tert-butylamino)-6-(4-hydroxyphenyl)thieno[3,2-d]pyrimidin-4(3H)-one]	12.2 ± 0.3	–
2 ± 0.9	259 to 261	CC(C)(C)Nc1nc2cc(-c3ccc(F)c(Cl)c3)sc2c(=O)[nH]1 [Compound 4e, 2-tert-Butylamino-6-(3-chloro-4-fluorophenyl)thieno[3,2-d]pyrimidin-4(3H)-one]	> 12.5	>6.3
3.6 ± 1.2	> 300	CC(C)Nc1nc2cc(-c3ccc(F)c(Cl)c3)sc2c(=O)[nH]1 [Compound 4f, 2-(Propan-2-ylamino)-6-(3-chloro-4-fluorophenyl)thieno[3,2-d]pyrimidin-4(3H)-one]	> 6.25	>1.7
2.4 ± 0.9	> 300	CC(C)(C)Nc1nc2cc(-c3ccc(N4CCOCC4)cc3)sc2c(=O)[nH]1 [Compound 4g, 2-tert-Butylamino-6-[4-(morpholin-4-yl)phenyl]thieno[3,2-d]pyrimidin-4(3H)-one]	7.9 ± 1.3	3.3
4.1 ± 0.7	–	CN1CCN(c2ccc(-c3cc4nc(NC(C)(C)C)[nH]c(=O)c4s3)cc2)CC1 [Compound 4h, 2-tert-Butylamino-6-[4-(4-methylpiperazin-1-yl)phenyl]thieno[3,2-d]pyrimidin-4(3H)-one]	5.8 ± 0.5	–
4.1 ± 1.2	–	CC(C)(C)Nc1nc2cc(-c3ccc(N4CCCCC4)cc3)sc2c(=O)[nH]1 [Compound 4i, 2-tert-Butylamino-6-[4-(piperidin-1-yl)phenyl]thieno[3,2-d]pyrimidin-4(3H)-one]	> 6.25	–
3 ± 0.6	–	CC(C)(C)Nc1nc2cc(-c3ccc(S(C)(=O)=O)cc3)sc2c(=O)[nH]1 [Compound 4k, 2-tert-Butylamino-6-[4-(methylsulfonyl)phenyl]thieno[3,2-d]pyrimidin-4(3H)-one]	> 25	–
6 ± 1.1	–	CC(C)Nc1nc2cc(-c3ccc(N)cc3)sc2c(=O)[nH]1 [Compound 4q, 6-(4-aminophenyl)-2-(propan-2-ylamino)thieno[3,2-d]pyrimidin-4(3H)-one]	11.3 ± 3.5	–
